The text below walks through data of US4963563A, “6-substituted-1,2,3,4-tetrahydroisoquinolines” (Abbott Laboratories, priority 1989, dated 1990).

pKi: −log10 of the molar value. Structures can show the parent of a compound that is named as a salt.

One assay addresses T1, alpha-1-receptor (Rattus norvegicus, UniProt P15823).
T1 sequence (P15823 1-515): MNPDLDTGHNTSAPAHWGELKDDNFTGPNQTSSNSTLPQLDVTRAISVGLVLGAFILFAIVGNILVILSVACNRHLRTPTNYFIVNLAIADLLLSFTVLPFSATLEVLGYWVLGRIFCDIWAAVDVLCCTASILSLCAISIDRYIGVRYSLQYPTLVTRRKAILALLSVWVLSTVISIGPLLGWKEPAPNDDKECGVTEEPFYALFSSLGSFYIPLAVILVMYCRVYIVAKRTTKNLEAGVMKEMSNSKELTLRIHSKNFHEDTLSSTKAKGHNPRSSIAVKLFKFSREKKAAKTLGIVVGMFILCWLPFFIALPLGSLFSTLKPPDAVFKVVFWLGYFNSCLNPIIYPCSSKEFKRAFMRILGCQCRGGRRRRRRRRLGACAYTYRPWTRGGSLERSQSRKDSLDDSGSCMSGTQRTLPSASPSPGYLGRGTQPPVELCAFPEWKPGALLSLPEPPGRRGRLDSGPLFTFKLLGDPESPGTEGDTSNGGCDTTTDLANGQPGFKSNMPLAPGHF
Nature of the assay: Radioligand binding, alpha-1 adrenoceptor ([3H]-pyrazosin, rat liver homogenates).

Another assay concerns the target alpha-2-receptor. Nature of the assay: Radioligand binding, alpha-2 adrenoceptor ([3H]-rauwolscine, rat cerebral cortices).
Assay [1] concerns normal eyes of rabbits (intraocular pressure). Nature of the assay: Antiglaucoma activity: intraocular pressure after instillation into normal eyes of rabbits. The assay is classed as in vivo, male, albino New Zealand rabbits. As for the experimental part: In order to evaluate antiglaucoma activity, the test compounds were dissolved in the vehicle, a 0.2% aqueous solution of hydroxymethylcellulose at various concentrations such as 0.03%, 0.1%, or 0.3%. Comparisons were made to the reference standard, pilocarpine hydrochloride which was dissolved in the vehicle at a concentration of 0.5%. Control treatment was a volume dose of vehicle.
Male, albino New Zealand rabbits (Scientific Animal Farms and/or Kuiper's Rabbit Ranch) weighing 2.06-2.5 kg were used in the study. Intraocular pressures were obtained in the normal eyes of the animals using a Bausch and Lomb Applamatic Tonometer. Three separate sessions provided the baseline pressures for each eye. The test compound or vehicle (0.1 mL) was instilled into the eyes of 6 different rabbits according to a randomized dosing schedule. Intraocular pressures were taken at 5, 15, 30, 45, 60, 90 and 120 minutes after instillation of the test compounds.
Statistical treatment was by one-way analysis of variance. Results are shown (Table 1) for a representative sample of the compounds claimed.

[2] abbreviates: 5 minutes after administration, 0.3% solution, 0.1 mL instilled.
Setting [3] is: 15 minutes after administration, 0.3% solution, 0.1 mL instilled.
Setting [4] is: 90 minutes after administration, 0.3% solution, 0.1 mL instilled.
The mark [5] stands for this setting: 120 minutes after administration, 0.3% solution, 0.1 mL instilled.

With `COc1ccc2c(c1)CCN(CCCc1cccc(F)c1)C2` [Example 5, 1,2,3,4-Tetrahydro-6-methoxy-N-3-(m-fluorophenyl)propyl isoquinoline hydrochloride], the pKi was 6.69 at alpha-1-receptor and 8.34 on alpha-2-receptor.
The like results for `COc1cccc(CCCN2CCc3cc(OC)ccc3C2)c1` [Example 8, 1,2,3,4-Tetrahydro-6-methoxy-N-3-(3-methoxyphenyl)propyl isoquinoline hydrochloride] were, in that order, 6.76 and 7.97.
The like results for `COc1ccc2c(c1)CCN(CCCc1ccco1)C2` [Example 6, 1,2,3,4-Tetrahydro-6-methoxy-N-3-(2-furyl)propylisoquinoline hydrochloride] were, in that order, 6.81 and 8.66.
As for `COc1ccc2c(c1)CCN(CCCc1ccccc1)C2` [Example 7, 1,2,3,4-Tetrahydro-6-methoxy-N-(3-phenylpropyl)isoquinoline hydrochloride], the negative logarithm of the Ki (pKi) on alpha-1-receptor is 6.66; at alpha-2-receptor, 8.23.
Consider `CC[C@@H]1C(=O)OC[C@@H]1Cc1cncn1C` [Pilocarpine, pilocarpine hydrochloride, reference compound], for which the “Percent Change in IOP vs Baseline” value in assay [1] (15 minutes after administration, 0.5% solution (reference standard)) is -22%; in assay [1] (90 minutes after administration, 0.5% solution (reference standard)), -20%; in assay [1] (120 minutes after administration, 0.5% solution (reference standard)), -33%.
For the compound `CN(C)C(=O)Oc1ccc2c(c1)CCN(CCCc1cccs1)C2.CS(=O)(=O)O` [Example 18, 1,2,3,4-Tetrahydro-6-((dimethylamino)carbonyl)oxy-2-N-(3-(2-thienyl)propyl)isoquinoline methane sulfonate], the “Percent Change in IOP vs Baseline” value in assay [1] (setting [2]) is -38%; in assay [1] (setting [3]), -26%; in assay [1] (setting [4]), -48%; in assay [1] (setting [5]), -12%.
In the case of `Cc1ccc2c(c1)CCN(CCCc1ccccc1)C2` [Example 13, 1,2,3,4-Tetrahydro-6-methyl-N-(3-(phenylpropylisoquinoline Hydrochloride], the pKi is 6.94 at alpha-1-receptor and 8.25 on alpha-2-receptor.
As for `CC(C)(C)C(=O)Oc1ccc2c(c1)CCN(CCCc1cccs1)C2.CS(=O)(=O)O` [Example 16, 1,2,3,4-Tetrahydro-6-trimethylacetoxy-N-3-(2-thienyl)propylisoquinoline methane sulfonate], the “Percent Change in IOP vs Baseline” value is on record as -11% in assay [1] (setting [2]), -12% in assay [1] (setting [3]), -36% in assay [1] (setting [4]) and -4% in assay [1] (setting [5]).
Take `COc1ccc2c(c1)CCN(CCCc1cccs1)C2.Cl` [Example 2, 1,2,3,4-Tetrahydro-6-methoxy-N-3-(2-thienyl)propylisoquinoline hydrochloride]: the pKi was 6.82 at alpha-1-receptor and 8.37 at alpha-2-receptor. In addition, the “Percent Change in IOP vs Baseline” value is on record as -50% in assay [1] (setting [2]), -41% in assay [1] (setting [3]), -13% in assay [1] (setting [4]) and “+8%” in assay [1] (setting [5]).
